From US20130253011A1, “INSECTICIDAL COMPOUNDS” (SYNGENTA PARTICIPATIONS AG, priority 2010, published 2013)

## COc1c(-c2cn(-c3c(C(F)(F)F)c(C(F)(F)C(F)(F)F)nn3C)nn2)cccc1N(C)C(=O)c1c(F)cc(F)cc1F
  melting point: 80 to 82 °C
